Experimental data taken from ChEMBL document CHEMBL3046540, “Statistically validated QSAR study of some antagonists of the human CCR5 receptor using least square support vector machine based on the genetic algorithm and factor analysis” (Med Chem Res, 2013).

target: C-C chemokine receptor type 5 (Homo sapiens, UniProt P51681); experiment: Antagonist activity at Homo sapiens (human) CCR5 receptor
Sequence (P51681 whole entry): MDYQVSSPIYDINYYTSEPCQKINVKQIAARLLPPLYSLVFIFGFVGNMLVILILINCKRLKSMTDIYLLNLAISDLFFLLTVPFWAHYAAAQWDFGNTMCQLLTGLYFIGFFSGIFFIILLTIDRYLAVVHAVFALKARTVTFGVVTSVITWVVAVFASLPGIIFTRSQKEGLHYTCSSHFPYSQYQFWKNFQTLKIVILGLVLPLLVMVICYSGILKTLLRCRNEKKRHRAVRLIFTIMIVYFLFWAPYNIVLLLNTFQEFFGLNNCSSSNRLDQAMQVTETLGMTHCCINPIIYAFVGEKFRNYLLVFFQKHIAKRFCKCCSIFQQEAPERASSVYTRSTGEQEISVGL

Going from `CCN(C(=O)NCc1ccccc1)C1CCN(CCC(CN(C)S(=O)(=O)c2ccccc2)c2ccccc2)CC1` (configuration not stated) to `CCCN(C(=O)OCc1ccccc1)C1CCN(CC[C@H](CN(C)S(=O)(=O)c2ccccc2)c2ccccc2)CC1`, the IC50 falls from 100 nM to 3.98 nM (25-fold).

Going from `CCCN(C(=O)NC)C1CCN(CCC(CN(C)S(=O)(=O)c2ccccc2)c2ccccc2)CC1` (configuration not stated) to `CNC(=O)NC1CCN(CCC(CN(C)S(=O)(=O)c2ccccc2)c2ccccc2)CC1` (configuration not stated), the IC50 falls from 1000 nM to 120 nM (8.3-fold).

First: CCCN(C(=O)OCc1ccccc1C)C1CCN(CC[C@H](CN(C)S(=O)(=O)c2ccccc2)c2ccccc2)CC1
Second: CCCN(C(=O)OCc1cccc(C(N)=O)c1)C1CCN(CC[C@H](CN(C)S(=O)(=O)c2ccccc2)c2ccccc2)CC1
The IC50 of the first is 1.9-fold higher: 1.51 nM for the first, 0.794 nM for the second.

Compared with `CCN(C(=O)OC)C1CCN(CC[C@H](CN(C)S(=O)(=O)c2ccccc2)c2cccc(Cl)c2)CC1`, `COC(=O)NC1CCN(CC[C@H](CN(C)S(=O)(=O)c2ccccc2)c2ccccc2)CC1` is 25-fold higher in IC50: 39.8 nM for the first, 1000 nM for the second. The first is the more potent here.

Compared with `CCCN(C(=O)OCc1ccc(C(N)=O)cc1)C1CCN(CC[C@H](CN(C)S(=O)(=O)c2ccccc2)c2ccccc2)CC1`, `C=CCN(C(=O)c1ccc([N+](=O)[O-])cc1)C1CCN(CCC(CN(C)S(=O)(=O)c2ccccc2)c2ccccc2)CC1` (configuration not stated) is 1.5-fold lower in IC50: 3.02 nM for the first, 2 nM for the second.

Going from `CN(CC(CCN1CCC(NC(=O)NCc2ccccc2)CC1)c1ccccc1)S(=O)(=O)c1ccccc1` (configuration not stated) to `C=CCN(C(=O)Nc1ccc([N+](=O)[O-])cc1)C1CCN(CCC(CN(C)S(=O)(=O)c2ccccc2)c2ccccc2)CC1` (configuration not stated), the IC50 falls from 2.51 nM to 0.759 nM (3.3-fold).
